Measured values taken from patent publication US12595269B2, “Morpholine-like monoamine releasers” (Solvonis Therapeutics Ireland Holdings Limited, priority 2022, dated 2026).
Like-named read-outs stand apart in the source and are kept apart here.

Experiments:
[1] = biological target: T1, human DAT (Homo sapiens, UniProt Q01959); assay: DAT uptake scintillation proximity assay, inhibition of [3H]-dopamine uptake in hDAT-CHO cells; type: cell-based; details: read-out: DAT update pIC50 (converted)
T1 construct: expressed in transfected cells; host or cells: CHO
Experimental: Overview: Eighty-eight compounds were tested in SERT (serotonin transporter) and DAT (dopamine transporter) uptake assays (completed as scintillation proximity assays, or SPAs, in a recombinant CHO cell line). Fifty-two compounds were tested in release assays for 5-HT and DA release in rat synaptosomes.
Methods and Procedure-Uptake: The potency of the compounds described herein for inhibiting DAT function was measured using an uptake assay in a recombinant CHO cell line stably expressing human DAT (hDAT-CHO). Potency was measured in terms of pIC50 by testing for inhibition of [^3H]-dopamine uptake in hDAT-CHO cells in a 384-well format scintillation proximity assay (SPA).
Briefly, on experiment days, hDAT-CHO cells were detached using Versene and added at a density of approximately 300,000 cells/mL to the SPA Mixture, which contains the following components in Assay Buffer (20 mM HEPES, 145 mM NaCl, 5 mM KCl, 2 mM CaCl2, 1 mM MgCl2, 5.5 mM glucose, 0.01% Pluronic F127, pH 7.3): 0.75 mg/mL SPA Imaging beads (RPNQ0001, PerkinElmer), 10 μM pargyline and 80 nM of [^3H]-dopamine (NET673, PerkinEImer). The SPA Mixture was added 20 μL/well to 384 well plates containing 0.1 μL/well of test compound in neat DMSO (11 points of 1:5 serial dilution, 0.5% DMSO final) or 0.1 μL of DMSO (total uptake) or 0.1 μL of the standard inhibitor indatraline (at 1 μM final concentration, as nonspecific uptake). Plates were sealed with a Top-seal A and read using a Microbeta counter (PerkinEImer) after 45 minutes of incubation at room temperature.
For both tests, the raw experimental data (cpm) were elaborated for the determination of pIC50/IC50 values as % inhibition of specific uptake. Concentration-response curves of MDMA, MDDMA, citalopram and GBR-12909 were used as internal standards in all experiments, and the signal window was monitored in each plate performing Z′ calculations, as described in Zhang et al., J. Biomol. Screen., 1999; 4: 67-73.

[2] = biological target: T2, SERT (serotonin release) (Rattus norvegicus, UniProt P31652); assay: Serotonin release filtration assay in rat cortex synaptosomes; type: cell-based
T2 construct: from tissue; host or cells: rat frontal cortex, crude synaptosomes
Experimental: Methods and Procedure—Release: The potency of the disclosed compounds for stimulating dopamine (DA) release was measured by an endpoint release filtration assay in a 96-well format using rat synaptosomes, essentially as described by Sandtner et al., Mol. Pharmacol., 2016; 89(1):165-75, and Baumann et al., Neuropsychopharmacol., 2013; 38:552-562, with some variations.
One male rat was sacrificed and striatum/cortex regions were dissected over ice. The striatum portions were weighed and put in a glass tube for homogenization, containing ice-cold 0.32 M sucrose (dilution 1:24 w/v), while the frontal cortex tissue was diluted in ice-cold 0.32 M sucrose, 1:20 w/v. Tissues were homogenized and centrifuged for 10 mins at 1000×g. The two supernatants from striatum and cortex (crude synaptosomes) were retained on ice until use.
Test compounds were then serially diluted 1:4 in neat DMSO as concentration-response curves (CRC) of 11 points. To each well of a 2-mL 96 deep-well plate (Whatman UNIPLATE 96 well) were added: 2 μL of CRC of test compounds or 2 μL of DMSO (no-release condition) or 2 μL of MDMA 10 mM solution (final 50 μM, for maximal release), followed by 200 μL/well of complete Krebs-phosphate buffer (126 mM NaCl, 2.4 mM KCl, 0.83 mM CaCl2, 0.8 mM MgCl2, 0.5 mM KH2PO4, 0.5 mM Na2SO4, 11.1 mM Glucose, 0.05 mM pargyline, 1 mg/mL ascorbic acid, freshly added, pH 7.4), containing 1 μM reserpine to block vesicular uptake of substrate. Desipramine (100 nM) and citalopram (100 nM) were also added to the release assay buffer in order to inhibit NET and SERT uptake, respectively. The final compound dilution, then, was 1:200 in 0.5% DMSO.
The raw data (cpm) from residual radioactivity onto the filter were elaborated for the determination of pEC50/EC50 values. Specifically, the compound effect was expressed as the percent of maximal release obtained with 50 μM MDMA (100% release) in comparison to vehicle (0.5% DMSO, 0% release). Both MDMA and D-amphetamine in CRC were used as internal controls in each release experiment. In each plate, for both 0% and 100% of release, the signal window is monitored performing Z′ calculations using raw data of four replicates.
Synaptosomes were then loaded with ^3H-5HT for 60 minutes at RT. After dispensing loaded synaptosomes onto a compound plate (200 μL/well), the release reaction proceeded for an additional 15 minutes. Stop by filtration, counting, and data elaboration were performed as described for DA release.

[3] = rat cortex synaptosomes, % of release by 50 μM MDMA, read-out: SERT release pEC50 (converted)

T2 sequence (P31652 whole entry): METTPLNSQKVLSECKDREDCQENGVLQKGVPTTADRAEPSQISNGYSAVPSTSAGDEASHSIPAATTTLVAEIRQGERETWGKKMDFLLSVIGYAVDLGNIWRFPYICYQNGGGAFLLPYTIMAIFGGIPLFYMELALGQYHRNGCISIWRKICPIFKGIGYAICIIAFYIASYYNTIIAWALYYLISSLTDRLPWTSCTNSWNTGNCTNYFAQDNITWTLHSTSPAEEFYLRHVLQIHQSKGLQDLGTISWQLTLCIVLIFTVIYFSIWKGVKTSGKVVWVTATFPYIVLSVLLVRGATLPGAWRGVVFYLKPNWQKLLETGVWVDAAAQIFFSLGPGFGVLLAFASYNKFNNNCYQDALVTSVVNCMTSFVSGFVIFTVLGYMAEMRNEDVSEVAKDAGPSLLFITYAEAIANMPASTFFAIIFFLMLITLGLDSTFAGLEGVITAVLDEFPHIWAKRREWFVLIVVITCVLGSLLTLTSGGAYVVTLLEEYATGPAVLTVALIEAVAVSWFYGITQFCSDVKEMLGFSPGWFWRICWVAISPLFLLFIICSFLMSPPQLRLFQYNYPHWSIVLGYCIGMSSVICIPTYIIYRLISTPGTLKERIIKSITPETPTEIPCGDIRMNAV
T1 sequence (Q01959 whole entry): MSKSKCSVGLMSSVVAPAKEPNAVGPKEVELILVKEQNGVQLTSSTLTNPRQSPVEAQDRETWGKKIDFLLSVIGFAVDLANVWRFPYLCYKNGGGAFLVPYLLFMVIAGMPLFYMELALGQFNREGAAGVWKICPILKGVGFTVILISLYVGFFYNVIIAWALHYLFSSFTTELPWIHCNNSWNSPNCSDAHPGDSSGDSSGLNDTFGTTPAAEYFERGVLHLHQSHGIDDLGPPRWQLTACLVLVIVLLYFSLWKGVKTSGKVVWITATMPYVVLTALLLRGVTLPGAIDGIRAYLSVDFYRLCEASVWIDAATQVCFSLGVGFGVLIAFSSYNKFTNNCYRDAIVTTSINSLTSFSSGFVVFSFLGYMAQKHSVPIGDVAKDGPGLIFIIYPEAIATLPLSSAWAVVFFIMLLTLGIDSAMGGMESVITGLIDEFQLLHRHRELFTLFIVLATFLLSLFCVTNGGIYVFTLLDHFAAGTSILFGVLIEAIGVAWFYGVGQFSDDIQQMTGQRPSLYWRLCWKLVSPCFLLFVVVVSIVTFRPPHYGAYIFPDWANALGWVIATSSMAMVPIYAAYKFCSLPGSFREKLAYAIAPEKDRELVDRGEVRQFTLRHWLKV

SMILES | IC50 [1] [nM] | EC50 [2, 3] [nM] | EC50 ([2]; serotonin release, read-out: EC50 to influence SER release) [nM]
Clc1ccc([C@]23CN[C@H](CO2)C3)cc1Cl (single isomer, unassigned) [516A] | 72.4 | 18.2 | –
Clc1ccc([C@@]23CN[C@@H](CO2)C3)cc1Cl (single isomer, unassigned) [518A] | 89.1 | 17 | –
Clc1ccc(C23CNC(CO2)C3)cc1Cl (stereo not shown) [522A, 1-(3,4-dichlorophenyl)-2-oxa-5-azabicyclo[2.2.1]heptane] | 63.1 | 19.1 | 22
